Reference: patent US8822503B2, “2-pyridone compounds” (Taisho Pharmaceutical Co., Ltd, priority 2009, dated 2014)
pEC50: −log10 of the molar value.

Target: T1, human liver GK (Homo sapiens, UniProt P35557)
T1 construct: GST (glutathione S-transferase) (N); made in house; host or cells: E. coli
T1 sequence (P35557 1-466 isoform P35557-2): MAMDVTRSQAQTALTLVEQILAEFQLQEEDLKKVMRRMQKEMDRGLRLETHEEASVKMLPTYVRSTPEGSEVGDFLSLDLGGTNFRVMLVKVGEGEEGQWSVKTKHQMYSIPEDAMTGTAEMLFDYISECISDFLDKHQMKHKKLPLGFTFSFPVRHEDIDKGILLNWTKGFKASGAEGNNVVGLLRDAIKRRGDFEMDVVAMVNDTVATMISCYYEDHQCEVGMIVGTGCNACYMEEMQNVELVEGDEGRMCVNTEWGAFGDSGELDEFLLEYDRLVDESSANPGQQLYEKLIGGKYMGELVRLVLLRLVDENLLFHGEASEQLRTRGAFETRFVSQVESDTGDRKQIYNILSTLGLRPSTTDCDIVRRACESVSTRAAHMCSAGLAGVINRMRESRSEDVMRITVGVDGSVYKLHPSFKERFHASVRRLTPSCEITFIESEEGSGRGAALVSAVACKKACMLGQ
Assay: GK activation test
Format: biochemical
Conditions: test compound concentration needed to activate 50% of maximum activation ability; 4 mM 14C-labeled glucose, 2 mM ATP, room temperature, 20 minutes
Outline: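 GST-tagged human liver GK from E. coli (0.24 μg/well) with 4 mM 14C-glucose, 2 mM ATP in Hepes-KOH pH 7.1, KCl, MgCl2, DTT, 1% DMSO, 20 min room temperature. Labeled glucose 6-phosphate captured on anion resin, eluted and counted. EC50 = concentration giving half of maximal activation.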

Row | pEC50 | SMILES
1 | 6.30 to 8.00 | O=C1CC[C@H](/C=C(\c2ccc(Cl)cc2)c2ccc(-c3cn[nH]c3)c(=O)[nH]2)N1 [Example 4-359, 6-{(E)-1-(4-Chlorophenyl)-2-[(2R)-5-oxopyrrolidin-2-yl]ethenyl}-3-(1H-pyrazol-4-yl)pyridin-2(1H)-one]
2 | 6.30 to 8.00 | O=C1CC[C@H](/C=C(\c2ccc(C(F)(F)F)cc2)c2ccc(-c3cn[nH]c3)c(=O)[nH]2)N1 [Example 4-360, 6-{(E)-2-[(2R)-5-Oxopyrrolidin-2-yl]-1-[4-(trifluoromethyl)phenyl]ethenyl}-3-(1H-pyrazol-4-yl)pyridin-2(1H)-one]
3 | 6.30 to 8.00 | CC(C)(C)c1ccc(/C(=C\[C@H]2CCC(=O)N2)c2ccc(-c3cn[nH]c3)c(=O)[nH]2)cc1 [Example 4-361, 6-{(E)-1-(4-tert-Butylphenyl)-2-[(2R)-5-oxopyrrolidin-2-yl]ethenyl}-3-(1H-pyrazol-4-yl)pyridin-2(1H)-one]
4 | 5.00 to 5.52 | Cc1ccc(/C(=N/OC2CCCC2)c2ccc(S(C)(=O)=O)cc2)[nH]c1=O [Example 5-3, (E)-6-{(Cyclopentyloxyimino)[4-(methylsulfonyl)phenyl]methyl}-3-methylpyridin-2(1H)-one]
5 | 5.00 to 5.52 | CC(C)(C)c1ccc(/C(=C\CO)c2ccc(Cl)c(=O)[nH]2)cc1 [Example 6-1, 6-[(1E)-1-(4-tert-Butylphenyl)-3-hydroxyprop-1-en-1-yl]-3-chloropyridin-2(1H)-one]
6 | 6.30 to 8.00 | CC(C)(C)c1ccc(/C(=C\CN2CCOC2=O)c2ccc(Cl)c(=O)[nH]2)cc1 [Example 6-2, 6-[(1E)-1-(4-tert-Butylphenyl)-3-(2-oxo-1,3-oxazolidin-3-yl)prop-1-en-1-yl]-3-chloropyridin-2(1H)-one]
7 | 6.30 to 8.00 | CC(C)(C)c1ccc(/C(=C\CN2CCCC2=O)c2ccc(Cl)c(=O)[nH]2)cc1 [Example 6-3, 6-[(1E)-1-(4-tert-Butylphenyl)-3-(2-oxopyrrolidin-1-yl)prop-1-en-1-yl]-3-chloropyridin-2(1H)-one]
8 | 5.52 to 6.30 | CC(C)(C)c1ccc(/C(=C\CN2CCCCC2=O)c2ccc(Cl)c(=O)[nH]2)cc1 [Example 6-4, 6-[(1E)-1-(4-tert-Butylphenyl)-3-(2-oxopiperidin-1-yl)prop-1-en-1-yl]-3-chloropyridin-2(1H)-one]
9 | 5.00 to 5.52 | CC(C)(C)c1ccc(/C(=C\CN2CCOCC2)c2ccc(Cl)c(=O)[nH]2)cc1 [Example 6-5, 6-[(1E)-1-(4-tert-Butylphenyl)-3-(morpholin-4-yl)prop-1-en-1-yl]-3-chloropyridin-2(1H)-one]
10 | 5.52 to 6.30 | CC(C)(C)c1ccc(/C(=C\CN2CCCCCC2=O)c2ccc(Cl)c(=O)[nH]2)cc1 [Example 6-6, 1-[(2E)-3-(4-tert-Butylphenyl)-3-(5-chloro-6-oxo-1,6-dihydropyridin-2-yl)prop-2-en-1-yl]azepan-2-one]
11 | 5.52 to 6.30 | CC(C)(C)c1ccc(/C(=C\CN2CCCS2(=O)=O)c2ccc(Cl)c(=O)[nH]2)cc1 [Example 6-7, 6-[(1E)-1-(4-tert-Butylphenyl)-3-(1,1-dioxido-1,2-thiazolidin-2-yl)prop-1-en-1-yl]-3-chloropyridin-2(1H)-one]
12 | 5.52 to 6.30 | CC(C)(C)c1ccc(/C(=C\CN2C(=O)CCC2=O)c2ccc(Cl)c(=O)[nH]2)cc1 [Example 6-9, 1-[(2E)-3-(4-tert-Butylphenyl)-3-(5-chloro-6-oxo-1,6-dihydropyridin-2-yl)prop-2-en-1-yl]pyrrolidine-2,5-dione]
13 | 5.52 to 6.30 | CC(C)(C)c1ccc(/C(=C\COc2ccccc2)c2ccc(Cl)c(=O)[nH]2)cc1 [Example 6-10, 6-[(1E)-1-(4-tert-Butylphenyl)-3-phenoxyprop-1-en-1-yl]-3-chloropyridin-2(1H)-one]
14 | 5.52 to 6.30 | CC(C)(C)c1ccc(/C(=C\Cn2ccccc2=O)c2ccc(Cl)c(=O)[nH]2)cc1 [Example 6-11, 6-[(1E)-1-(4-tert-Butylphenyl)-3-(2-oxopyridin-1(2H)-yl)prop-1-en-1-yl]-3-chloropyridin-2(1H)-one]
15 | 5.52 to 6.30 | CC(C)(C)c1ccc(/C(=C\CCN2CCCS2(=O)=O)c2ccc(Cl)c(=O)[nH]2)cc1 [Example 6-12, 6-[(1E)-1-(4-tert-Butylphenyl)-4-(1,1-dioxide-1,2-thiazolidin-2-yl)but-1-en-1-yl]-3-chloropyridin-2(1H)-one]
16 | 5.52 to 6.30 | CC(C)(C)c1ccc(/C(=C\CCN2C(=O)CCC2=O)c2ccc(Cl)c(=O)[nH]2)cc1 [Example 6-13, 1-[(3E)-4-(4-tert-Butylphenyl)-4-(5-chloro-6-oxo-1,6-dihydropyridin-2-yl)but-3-en-1-yl]pyrrolidine-2,5-dione]

Row | pEC50 | SMILES
17 | 5.52 to 6.30 | CC(C)(C)c1ccc(/C(=C\N2CCCC2=O)c2ccc(Cl)c(=O)[nH]2)cc1 [Example 6-14, 6-[(E)-1-(4-tert-Butylphenyl)-2-(2-oxopyrrolidin-1-yl)ethenyl]-3-chloropyridin-2(1H)-one]
18 | 5.00 to 5.52 | CC(C)(C)c1ccc(/C(=C\C(=O)N2CCCC2)c2ccc(Cl)c(=O)[nH]2)cc1 [Example 6-15, 6-[(1E)-1-(4-tert-Butylphenyl)-3-oxo-3-(pyrrolidin-1-yl)prop-1-en-1-yl]-3-chloropyridin-2(1H)-one]
19 | 6.30 to 8.00 | CN1CCN(C/C=C(\c2ccc(C(C)(C)C)cc2)c2ccc(Cl)c(=O)[nH]2)C1=O [Example 6-16, 6-[(1E)-1-(4-tert-Butylphenyl)-3-(3-methyl-2-oxoimidazolidin-1-yl)prop-1-en-1-yl]-3-chloropyridin-2(1H)-one]
20 | 5.00 to 5.52 | CC(C)(C)c1ccc(/C(=C\CN2CCCCCCC2=O)c2ccc(Cl)c(=O)[nH]2)cc1 [Example 6-18, 1-[(2E)-3-(4-tert-Butylphenyl)-3-(5-chloro-6-oxo-1,6-dihydropyridin-2-yl)prop-2-en-1-yl]azocan-2-one]
21 | 5.52 to 6.30 | CN1CCC(C/C=C(\c2ccc(C(C)(C)C)cc2)c2ccc(Cl)c(=O)[nH]2)C1=O (centres unmarked) [Example 6-19, 6-[(1E)-1-(4-tert-Butylphenyl)-3-(1-methyl-2-oxopyrrolidin-3-yl)prop-1-en-1-yl]-3-chloropyridin-2(1H)-one]
22 | 5.52 to 6.30 | O=C1CCCN1C/C=C(\c1ccc(S(=O)(=O)C2CC2)cc1)c1ccc(Cl)c(=O)[nH]1 [Example 6-20, 3-Chloro-6-[(1E)-1-[4-(cyclopropylsulfonyl)phenyl]-3-(2-oxopyrrolidin-1-yl)prop-1-en-1-yl]pyridin-2(1H)-one]
23 | 5.52 to 6.30 | O=C1OCCN1C/C=C(\c1ccc(S(=O)(=O)C2CC2)cc1)c1ccc(Cl)c(=O)[nH]1 [Example 6-21, 3-Chloro-6-[(1E)-1-[4-(cyclopropylsulfonyl)phenyl]-3-(2-oxo-1,3-oxazolidin-3-yl)prop-1-en-1-yl]pyridin-2(1H)-one]
24 | 5.52 to 6.30 | CC(C)c1ccc(/C(=C\CN2CCOC2=O)c2ccc(Cl)c(=O)[nH]2)cc1 [Example 6-22, 3-Chloro-6-{(1E)-3-(2-oxo-1,3-oxazolidin-3-yl)-1-[4-(propan-2-yl)phenyl]prop-1-en-1-yl}pyridin-2(1H)-one]
25 | 5.00 to 5.52 | CC(C)(C)c1ccc(/C(=C\Cc2nc(=O)o[nH]2)c2ccc(Cl)c(=O)[nH]2)cc1 [Example 6-23, 6-[(1E)-1-(4-tert-Butylphenyl)-3-(5-oxo-2,5-dihydro-1,2,4-oxadiazol-3-yl)prop-1-en-1-yl]-3-chloropyridin-2(1H)-one]
26 | 5.00 to 5.52 | CC(C)(C)c1ccc(/C(=C\CCO)c2ccc(Cl)c(=O)[nH]2)cc1 [Example 6-24, 6-[(1E)-1-(4-tert-Butylphenyl)-4-hydroxybut-1-en-1-yl]-3-chloropyridin-2(1H)-one]
27 | 5.52 to 6.30 | CC(C)(C)c1ccc(/C(=C\CCN2CCCC2=O)c2ccc(Cl)c(=O)[nH]2)cc1 [Example 6-27, 6-[(1E)-1-(4-tert-Butylphenyl)-4-(2-oxopyrrolidin-1-yl)but-1-en-1-yl]-3-chloropyridin-2(1H)-one]
28 | 5.52 to 6.30 | CC(C)(C)c1ccc(/C(=C\Cc2ccccc2)c2ccc(Cl)c(=O)[nH]2)cc1 [Example 6-28, 6-[(1E)-1-(4-tert-Butylphenyl)-3-phenylprop-1-en-1-yl]-3-chloropyridin-2(1H)-one]
29 | 5.52 to 6.30 | Cn1ccc(=O)n(C/C=C(\c2ccc(C(C)(C)C)cc2)c2ccc(Cl)c(=O)[nH]2)c1=O [Example 6-31, 3-[(2E)-3-(4-tert-Butylphenyl)-3-(5-chloro-6-oxo-1,6-dihydropyridin-2-yl)prop-2-en-1-yl]-1-methylpyrimidine-2,4(1H, 3H)-dione]
30 | 5.00 to 5.52 | CC(C)(C)c1ccc(/C(=C\Cn2cccnc2=O)c2ccc(Cl)c(=O)[nH]2)cc1 [Example 6-32, 1-[(2E)-3-(4-tert-Butylphenyl)-3-(5-chloro-6-oxo-1,6-dihydropyridin-2-yl)prop-2-en-1-yl]pyrimidin-2(1H)-one]
31 | 5.52 to 6.30 | CC(C)(C)c1ccc(/C(=C\Cn2ncccc2=O)c2ccc(Cl)c(=O)[nH]2)cc1 [Example 6-33, 2-[(2E)-3-(4-tert-Butylphenyl)-3-(5-chloro-6-oxo-1,6-dihydropyridin-2-yl)prop-2-en-1-yl]pyridazin-3(2H)-one]
32 | 5.52 to 6.30 | CC(C)(C)c1ccc(/C(=C\Cn2cnccc2=O)c2ccc(Cl)c(=O)[nH]2)cc1 [Example 6-34, 3-[(2E)-3-(4-tert-Butylphenyl)-3-(5-chloro-6-oxo-1,6-dihydropyridin-2-yl)prop-2-en-1-yl]pyrimidin-4(3H)-one]
